Publication PMC10673369, “Preliminary SAR of Novel Pleuromutilin–Polyamine Conjugates” (Microorganisms, 2023)

Experiments:
S. aureus ATCC 25923 = experiment: MIC, broth dilution, S. aureus; type: cell-based; conditions: Staphylococcus aureus, ATCC25923, mean (n = 3)
Protocol: (§1) The susceptibility of bacterial strains S. aureus (ATCC 25923), E. coli (ATCC 25922), and P. aeruginosa (ATCC 27853 or PAO1) to antibiotics and compounds was determined using reported protocols. Additional antimicrobial evaluation against MRSA (ATCC 43300), Klebsiella pneumoniae (ATCC 700603), A. baumannii (ATCC 19606), Candida albicans (ATCC 90028), and Cryptococcus neoformans (ATCC 208821) was undertaken at the Community for Open Antimicrobial Drug Discovery at The University of Queensland (Australia) according to their standard protocols as reported previously. […]
(§2) 2.3. Antimicrobial Assays
The susceptibility of bacterial strains S. aureus (ATCC 25923), E. coli (ATCC 25922), and P. aeruginosa (ATCC 27853 or PAO1) to antibiotics and compounds was determined in microplates using the standard broth dilution method in accordance with the recommendations of the Comité de l’AntibioGramme de la Société Française de Microbiologie (CA-SFM). Briefly, the minimal inhibitory concentrations (MICs) were determined with an inoculum of 10^5 CFU in 200 µL of Mueller–Hinton broth (MHB) containing two-fold serial dilutions of each drug. The MIC was defined as the lowest […]
determine all MICs, the measurements were independently repeated in triplicate. Additional antimicrobial evaluation against MRSA (ATCC 43300), Klebsiella pneumoniae (ATCC 700603), A. baumannii (ATCC 19606), Candida albicans (ATCC 90028), and Cryptococcus neoformans (ATCC 208821) was undertaken at the Community for Open Antimicrobial Drug Discovery at The University of Queensland (Australia) according to their standard protocols as reported previously. […]
(§3) For C. neoformans, resazurin was added at 0.006% final concentration to each well and incubated for a further 3 h before MICs were determined by measuring […]
(§4) Colistin and vancomycin were used as positive bacterial inhibitor standards for Gram-negative and Gram-positive bacteria, respectively. Fluconazole was used as a positive fungal inhibitor standard for C. albicans and C. neoformans. The antibiotics were provided in […], with 3 above and 3 below its MIC value, and plated into the first 8 wells of column 23 of the 384-well NBS plates. The quality control (QC) of the assays was determined by the antimicrobial controls and the Z'-factor (using positive and negative controls). Each plate was deemed to fulfil the quality criteria (pass QC) if the Z'- […]
(§5) inhibition at their highest concentration, and no growth inhibition at their lowest concentration.
(§6) 2.4. Determination of the MICs of Antibiotics in the Presence of Synergizing Compounds

[1] = system: K. pneumoniae ATCC 700603; experiment: MIC, CO-ADD broth microdilution, K. pneumoniae; type: cell-based, Klebsiella pneumoniae; conditions: Klebsiella pneumoniae, ATCC700603, mean (n = 2)
Protocol: as §1, §2
The susceptibility of bacterial strains S. aureus (ATCC 25923), E. coli (ATCC 25922), and P. […]
baumannii (ATCC 19606), Candida albicans (ATCC 90028), and Cryptococcus neoformans (ATCC 208821) was undertaken at the Community for Open Antimicrobial Drug Discovery at The University of Queensland (Australia) according to their standard protocols as reported previously. For antimicrobial assays, the tested strains were cultured in either Luria broth (LB) (In Vitro Technologies, USB75852), nutrient broth (NB) (Becton Dickson, 234000), or MHB at 37 °C overnight. A sample of culture was then diluted 40-fold in fresh MHB and incubated at 37 °C for 1.5−2 h. The compounds were serially diluted 2-fold across the wells of 96-well plates (Corning 3641, non-binding surface), with compound concentrations ranging from 0.015 to 64 µg/ mL, and plated in duplicate. The resultant mid-log phase cultures were diluted to the final concentration of 1 × 10^6 CFU/mL; then, 50 µL was added to each well of the compound-containing plates, giving a final compound concentration range of 0.008 to 32 µg/mL and a cell density of 5 × 10^5 CFU/mL. All plates were then covered and incubated at 37 °C for 18 h. Resazurin was added at 0.001% final concentration to each well and incubated for 2 h before MICs […]
as §3, §4, §5, §6

[2] = Cytotoxicity assay, HEK293; type: cell-based; conditions: human; HEK293 cells; mean (n = 2); read-out: Cytotoxicity (IC50), concentration of compound at 50% cytotoxicity
Protocol: Cytotoxicity assays were conducted using reported protocols (see Supplementary File). […]
HEK293 cells were counted manually in a Neubauer hemocytometer and plated at a density of 5,000 cells/well into each well of the 384-well plates containing the 25x (2 µL) concentrated compounds [26,27]. The medium used was Dulbecco's modified Eagle’s medium (DMEM), supplemented with 10% fetal bovine serum (FBS). Cells were incubated together with the compounds for 20 h at 37 °C, 5% CO2.
To measure cytotoxicity, 5 µL (equals 100 µM final) of resazurin was added to each well after incubation and incubated for further 3 h at 37 °C with 5% CO2. After the final incubation, fluorescence intensity […]
reader. CC50 values (concentration at 50% cytotoxicity) were calculated by normalizing the fluorescence readout, with 74 µg/mL tamoxifen as negative control (0%) and normal cell growth as positive control (100%). The concentration-dependent percentage cytotoxicity was fitted to a dose–response function (using Pipeline Pilot) and CC50 values were determined. […]

human red blood cells = experiment: Hemolytic assay; type: cell-based; conditions: mean (n = 2)
Protocol: Hemolysis assays were conducted using reported protocols (see Supplementary File). […]
Human whole blood was washed three times with three volumes of 0.9% NaCl and then resuspended in the same solution to a concentration of 0.5 x 10^8 cells/mL, as determined by the manual cell count in a Neubauer hemocytometer. The washed cells were then added to the 384-well compound-containing plates for a final volume of 50 µL. After a 10 min shake on a plate shaker, the plates were then incubated for 1 h at 37 °C. After incubation, the plates were centrifuged at 1,000g for 10 min to pellet cells and debris; 25 µL of the supernatant was then transferred to a polystyrene 384-well assay plate. Hemolysis was determined by measuring the supernatant absorbance at […] (OD405). The absorbance was measured using a Tecan M1000 Pro monochromator plate reader. HC10 and HC50 (concentration at 10% and 50% hemolysis, respectively) were calculated by curve fitting the inhibition values vs. log (concentration) using a sigmoidal dose–response function with variable fitting values for the top, bottom, and slope. […]

P. aeruginosa ATCC 27853 = experiment: Antibiotic enhancement of doxycycline; type: cell-based
Protocol: Antibiotic restoring enhancer concentrations were determined using reported protocols (see Supplementary File).
Briefly, restoring enhancer concentrations were determined with an inoculum of 5x10^5 CFU in 200
µL of MHB containing two-fold serial dilutions of each derivative in the presence of doxycycline at 4.5
The lowest concentration of the polyamine
These measurements were independently repeated in triplicate. […]

MIC (S. aureus ATCC 25923): 2.1 µM
MIC [1]: 21.5 µM
Dox/P.a.: fold change, ratio between intrinsic MIC of test compound and combination MIC (P. aeruginosa ATCC 27853; doxycycline at 4.5 µM): 4
Compound: C=C[C@]1(C)C[C@@H](OC(=O)CNCCCNCCCCCCCCCCCCNCCCNCC(=O)O[C@@H]2C[C@@](C)(C=C)[C@@H](O)[C@H](C)[C@]34CCC(=O)[C@H]3[C@@]2(C)[C@H](C)CC4)[C@]2(C)[C@H](C)CC[C@]3(CCC(=O)[C@H]32)[C@@H](C)[C@@H]1O.O=C(O)C(F)(F)F.O=C(O)C(F)(F)F.O=C(O)C(F)(F)F.O=C(O)C(F)(F)F [Compound 9f, N^1,N^1′-(Dodecane-1,12-diyl)bis(N^3-(2-(((3aR,4R,5R,7S,8S,9R,9aS,12R)-8-hydroxy-4,7,9,12-tetramethyl-3-oxo-7-vinyldecahydro-4,9a-propanocyclopenta [8]annulen-5-yl)oxy)-2-oxoethyl)propane-1,3-diaminium) 2,2,2-trifluoroacetate]
IC50 at 20 h [2]: 8.3 µM
Hemolysis (HC10), concentration of compound at 10% hemolytic activity (human red blood cells): 13.2 µM
Dox/P.a.: concentration required to restore doxycycline activity (P. aeruginosa ATCC 27853; doxycycline at 4.5 µM (2 µg/mL)): 8.38 µM
